Experimental findings from PubChem BioAssay AID1996 are described below.

The solubility (kinetic) is the concentration staying in solution when a stock, usually in DMSO, is diluted into the medium.

Converted amounts (≈) assume the structure as drawn. Some results are limits rather than exact numbers.

For this series the following is noted: buffer; pH 7.4; 200.0 µM.
For `O=c1[nH]c(O)c(C=Nc2ccccc2Oc2ccccc2)c(=O)[nH]1`, the kinetic solubility worked out at 0.8 µg/mL (≈ 2.47 µM).
The value for `O=C(COC(=O)/C=C/c1ccc(F)cc1)NCc1ccco1` was 5.1 µg/mL (≈ 16.8 µM).
The figure for `COc1ccc(Nc2c3c(nc4ccccc24)CCC3)c(OC)c1` is over 48.1 µg/mL; for `CN(C)NC(=O)c1ccc([N+](=O)[O-])s1` it is over 32.3 µg/mL; for `CC(OC(=O)c1ccccc1CCc1ccccc1)C(N)=O` (stereo not drawn) it is over 44.6 µg/mL.
For the compound `Cc1ccc(C(=O)N2CCn3c(C)ccc3C2C)cc1` (stereo not drawn), the solubility (kinetic) is 23.1 µg/mL (≈ 86.1 µM).
The figure for `CC1CN(CCc2ccccc2)c2nc3c(c(=O)n(C)c(=O)n3C)n2C1` (stereo not drawn) is 41.7 µg/mL (≈ 118 µM); for `O=C(CCNC(=O)c1ccco1)Nc1ccc(C(F)(F)F)cc1` it is 23.4 µg/mL (≈ 71.7 µM).
As to `O=C(c1ccco1)N1CCC(c2nc3ccccc3[nH]2)CC1`, the solubility (kinetic) was over 44.3 µg/mL.
As to `O=C(NC1CCSc2ccccc21)c1ccccc1F` (stereo not drawn), the solubility (kinetic) is 12.4 µg/mL (≈ 43.2 µM).
`COc1ccc(N2CCN(C(=O)c3cccnc3)CC2)c([N+](=O)[O-])c1`: the kinetic solubility is 36.6 µg/mL (≈ 107 µM).
Compound `COc1ccc(NC(=S)Nc2ccc3nccnc3c2)cc1` had a solubility (kinetic) of 22.8 µg/mL (≈ 73.5 µM).
In the case of `COc1ccc(C)cc1NC(=O)Nc1ccncc1`, the kinetic solubility was 4.6 µg/mL (≈ 17.9 µM).
`CCCc1c(C)nc(N2CCN(c3ccccc3OC)CC2)[nH]c1=O` displayed a solubility (kinetic) of 2.5 µg/mL (≈ 7.3 µM).
Take `N#Cc1ccccc1NC(=O)COC(=O)CCc1ccccc1`: the solubility (kinetic) was over 46.3 µg/mL.
The value for `Fc1ccc(CNC2CCN(Cc3ccccc3)CC2)cc1` was 35.7 µg/mL (≈ 120 µM); that for `Cc1nccc(-c2sc(-c3cccs3)nc2C)n1` was 2.6 µg/mL (≈ 9.51 µM).
The value for `Cc1cccnc1NC(=O)CCC(=O)c1cccs1` was over 41.2 µg/mL.
The figure for `O=C(/C=C/c1ccco1)Nc1scc(-c2ccccc2)c1C(=O)O` is 48.9 µg/mL (≈ 144 µM); for `O=C(Nc1ccc2c(c1)OCCO2)c1cccc(Br)c1` it is 3.2 µg/mL (≈ 9.58 µM).
As for `CC1(C)CC(NC(=O)c2ccc(Br)o2)CC(C)(C)N1`, the kinetic solubility is over 49.4 µg/mL.
The value for `CCOc1cccc(NC(=O)c2cnccc2C(F)(F)F)c1` was 43.2 µg/mL (≈ 139 µM).
With `Cc1cc(C)c(N=C2SCC(=O)N2Cc2ccco2)c(C)c1`, the kinetic solubility came out at 11.5 µg/mL (≈ 36.6 µM). This solubility kinetic lies about 3.8-fold lower than the previous one.
In turn, `O=C(c1ccc([N+](=O)[O-])cc1Cl)N1CCN(c2ccccn2)CC1` came in with a kinetic solubility of over 52 µg/mL.
`COc1ccc(S(=O)(=O)N2CCOCC2)cc1C(=O)N(C)Cc1ccco1`: the solubility (kinetic) was over 59.2 µg/mL.
Take `CC(=O)c1ccc(NCCC(=O)c2ccccc2)cc1`: the solubility (kinetic) is under 0.6 µg/mL.
The value for `Oc1c(Cl)cc(Cl)cc1C=Nc1ccc(N2CCOCC2)cc1` was 8.1 µg/mL (≈ 23.1 µM).
In turn, `COc1ccc(OC)c(NC(=O)COC(=O)CCc2ccc(S(=O)(=O)N3CCOCC3)cc2)c1` showed a solubility (kinetic) of 29 µg/mL (≈ 58.9 µM). Against the preceding compound, the solubility kinetic is about 3.6-fold higher.
Take `CC(CN1CCN(C)CC1)OC(=O)c1cccc(F)c1.Cl` (stereo not drawn): the kinetic solubility was over 47.5 µg/mL.
`CCOc1ccc(/C=C/C(=O)N2CCOCC2)cc1OC`: the kinetic solubility was over 43.7 µg/mL.
Regarding `CC1C(=O)N2CCCc3cc(S(=O)(=O)N(C)CCC#N)cc1c32` (stereo not drawn), the kinetic solubility was over 50 µg/mL.
Consider `Cc1nc(-c2ccccc2)nc2sc(C(=O)c3ccc(F)cc3)c(N)c12`, for which the kinetic solubility is 1.5 µg/mL (≈ 4.13 µM).
The figure for `Cc1ccc(/C=N/NC(=O)c2cccnc2)o1` is over 34.4 µg/mL; for `Nc1cc(=O)[nH]c(SCC(=O)NCCC2=CCCCC2)n1` it is over 46.3 µg/mL; for `COc1cccc(OCC(=O)N(C)Cc2nc(-c3ccccc3)no2)c1` it is 36.6 µg/mL (≈ 104 µM).
The figure for `CCc1nc2cc3sc(CC)nc3cc2s1` is 0.6 µg/mL (≈ 2.42 µM).
The compound `Cc1ccc(N=Cc2c(O)n(C)c(=O)n(C)c2=O)cc1` returned a kinetic solubility of 6.1 µg/mL (≈ 22.3 µM).
With `CC(C)c1ccc(NC(=O)C2CC2c2ccccc2)cc1` (stereo not drawn), the solubility (kinetic) is 12 µg/mL (≈ 43 µM). This solubility kinetic is about 2-fold higher than that of the compound before.
In the case of `COc1ccc2[nH]c(C(=O)N3CCc4ccccc4C3)c(C)c2c1`, the kinetic solubility stood at 2.6 µg/mL (≈ 8.12 µM).
In the case of `CC1C(=O)Nc2ccccc2N1C(=O)c1ccc(Cl)c(Cl)c1` (stereo not drawn), the kinetic solubility was 36.2 µg/mL (≈ 108 µM).
The figure for `COCc1cccc(C(=O)NC(c2ccccc2)c2ccccc2)c1` is 3.1 µg/mL (≈ 9.35 µM); for `CC(C)[C@H](NS(=O)(=O)c1ccccc1)C(=O)OCC(=O)Nc1cccc(S(N)(=O)=O)c1` it is 61.6 µg/mL (≈ 131 µM); for `Cc1cc(C(=O)NC(Cc2ccccc2)C(=O)O)c(C)o1` (stereo not drawn) it is over 43.1 µg/mL.
The value for `CCOc1cc(C)c(S(=O)(=O)N2CCCCC2)cc1C` was 14.5 µg/mL (≈ 48.8 µM).
On to `CC1CC(C)CN(C(=O)c2ccc(C#N)cc2)C1` (stereo not drawn), for which the kinetic solubility is over 36.3 µg/mL.
The figure for `O=C(COc1ccc(F)c(Cl)c1)N1CCCCCCC1` is 32.8 µg/mL (≈ 109 µM).
`Cc1ccc(NC(=O)CCOc2ccccc2)c(C)c1`: the solubility (kinetic) stood at 20.2 µg/mL (≈ 75 µM).
In turn, `CCCC(=O)NC(=S)Nc1cc(-c2nc3ncccc3o2)ccc1C` registered a solubility (kinetic) of 0.5 µg/mL (≈ 1.41 µM).
`CCOc1cc(CN2CCCCCC2)ccc1OC` registered a kinetic solubility of 27.4 µg/mL (≈ 104 µM).
For the compound `CC(=O)NC(CC(=O)N(C)Cc1cccc(Cl)c1Cl)c1ccccc1` (stereo not drawn), the solubility (kinetic) was over 56.9 µg/mL.
`Cl.NC(Cc1ccccc1)c1nc2ccccc2[nH]1` (stereo not drawn) displayed a kinetic solubility of 40.3 µg/mL.
Compound `CC1(C(=O)NCC2CCCO2)Oc2cccnc2NC1=O` (stereo not drawn) gave a kinetic solubility of over 43.7 µg/mL.
For `O=C(Nc1ccc(CN2CCOCC2)cc1)c1cc(Br)ccc1Cl`, the kinetic solubility turned out to be 57 µg/mL (≈ 139 µM).
Take `O=C(CCc1ccccc1)Nc1nc2c(F)cc(F)cc2s1`: the solubility (kinetic) came to 4 µg/mL (≈ 12.6 µM).
As to `O=C(CNC(=O)c1ccco1)OCC(=O)c1ccc([N+](=O)[O-])cc1`, the solubility (kinetic) is over 49.8 µg/mL.
The figure for `Cc1ccc(S(=O)(=O)NC(=O)c2ccc(F)cc2)c(C)c1` is over 46.1 µg/mL; for `Cc1nc2ccc(NC(=S)NCc3ccccc3)cc2nc1C` it is over 48.4 µg/mL.
With `COC(=O)/C=C1/SC(=Nc2ccc(Cl)c(Cl)c2)NC1=O`, the solubility (kinetic) turned out to be 1 µg/mL (≈ 3.02 µM).
Consider `COCCNc1cnn(-c2ccccc2)c(=O)c1Cl`, for which the solubility (kinetic) is over 42 µg/mL.
Consider `CC(C)c1ccc(N2C(=O)CC(=O)NC2=O)cc1`, for which the kinetic solubility came out at 34.4 µg/mL (≈ 140 µM).
As for `NC(=O)c1ccsc1NC(=O)CCc1ccccc1`, the kinetic solubility was found to be 37.4 µg/mL (≈ 136 µM).
With `Cc1cc(/C=C(\C#N)C(=O)N2CCCCC2)cc(C)c1O`, the kinetic solubility is over 42.7 µg/mL.
On to `Cc1cc(C)nc(SC2CC(=O)N(c3ccc(C)c(C)c3)C2=O)n1` (stereo not drawn), for which the solubility (kinetic) came to 19.7 µg/mL (≈ 57.7 µM).
In the case of `Cc1cc(C)c2c(-c3ccc(F)cc3)c(C#N)c(=O)n(C)c2n1`, the kinetic solubility is 0.6 µg/mL (≈ 1.95 µM).
Regarding `COc1ccccc1NC(=S)NC(=O)/C=C/c1cccs1`, the kinetic solubility was 0.4 µg/mL (≈ 1.26 µM).
Compound `O=c1[nH]c(=S)n(Cc2ccc(F)cc2)c(O)c1C=NCCCn1ccnc1` displayed a solubility (kinetic) of over 58.1 µg/mL.
For the compound `CNC(=S)NNC(=O)c1cccc(N(C)C)c1`, the kinetic solubility was over 37.9 µg/mL.
Take `O=C(/C=C/c1ccc(Cl)cc1)Nc1ccc(Br)cn1`: the solubility (kinetic) is under 0.4 µg/mL.
The value for `Cc1ccccc1C(=O)Nc1ccc2c(c1)OCCO2` was over 40.4 µg/mL.
The figure for `O=C(CSc1ccccn1)Nc1ccc2c(c1)OCCO2` is over 45.4 µg/mL; for `COC(=O)c1cc(S(=O)(=O)N(C)C2CCCCC2)oc1C` it is 37.5 µg/mL (≈ 119 µM); for `N#CSC(c1ccccc1)c1nc2ccccc2[nH]c1=O` (stereo not drawn) it is 26.9 µg/mL (≈ 91.7 µM).
`O=Cc1c[nH]c2ccc(C(=O)c3ccccc3)cc12`: the solubility (kinetic) was 4.3 µg/mL (≈ 17.3 µM).
The value for `O=C(CC1SC(N2CCOCC2)=NC1=O)Nc1ccc(Cl)c(C(F)(F)F)c1` (stereo not drawn) was 4.4 µg/mL (≈ 10.4 µM); that for `CN1/C(=C/C(=O)C2CC2)C(C)(C)c2ccccc21` was 8.3 µg/mL (≈ 34.4 µM).
Compound `Cc1cc2ccccn2c1C(=O)c1ccc([N+](=O)[O-])o1` returned a kinetic solubility of 1.3 µg/mL (≈ 4.81 µM).
With `O=C(COC(=O)C1CC1)Nc1ccc(Cl)cc1Cl`, the kinetic solubility was 41.9 µg/mL (≈ 145 µM). This solubility kinetic lies about 32-fold higher than the previous one.
For the compound `COc1ccc(OC)c(/C=C/c2nc3ccccc3[nH]c2=O)c1`, the solubility (kinetic) was found to be 3.1 µg/mL (≈ 10.1 µM).
In the case of `CC(C)NC(=O)c1ccccc1NC(=O)Cc1ccc([N+](=O)[O-])cc1`, the solubility (kinetic) came to 19.1 µg/mL (≈ 56 µM).
The compound `O=C(C1CC1)N1CCN(c2ccc([N+](=O)[O-])cc2)CC1` gave a kinetic solubility of over 41.3 µg/mL.
`O=C(O)C(=O)O.c1ccc2c(OCCCN3CCCCCC3)cccc2c1`: the solubility (kinetic) is 32.8 µg/mL.
With `Cc1ccc(S(=O)(=O)Nc2csc(C)c2C(=O)O)cc1`, the kinetic solubility is over 46.7 µg/mL.
Turning to `N#Cc1ccc(Cn2cc(C=O)c3ccccc32)cc1`, the solubility (kinetic) was found to be 4 µg/mL (≈ 15.4 µM).
In the case of `Nc1nccc(-c2cc(-c3ccc(Cl)cc3Cl)no2)n1`, the solubility (kinetic) turned out to be 0.7 µg/mL (≈ 2.28 µM).
`CCCc1nc2ccccc2c(=O)n1CC(=O)c1ccc(F)cc1` gave a kinetic solubility of 2.2 µg/mL (≈ 6.78 µM).
For `CN(Cc1ccccc1)c1ncc(C=O)s1`, the solubility (kinetic) was 27.8 µg/mL (≈ 120 µM).
The figure for `O=C(Oc1c(-c2ccccc2)c(=O)n2c3c(cccc13)CC2)c1cccc([N+](=O)[O-])c1` is 5.2 µg/mL (≈ 12.6 µM).
The compound `O=C(Nc1ccc2c(c1)CCC2)c1cnc(Cl)c(Cl)c1` returned a solubility (kinetic) of under 0.3 µg/mL.
`N#Cc1ccc(C(=O)CN2CCN(c3ccccc3)CC2)cc1` showed a kinetic solubility of 34 µg/mL (≈ 111 µM).
Take `COc1ccccc1CNC(=O)CN(C)CC(=O)Nc1ccc(F)c(F)c1F`: the kinetic solubility is over 59.3 µg/mL.
Consider `CS(=O)(=O)Nc1ccc(-c2cn3c(n2)SCC3)cc1`, for which the kinetic solubility is 43.6 µg/mL (≈ 148 µM).
Consider `CCN(CC(=O)NCc1ccc(F)cc1)S(=O)(=O)c1ccc(Cl)s1`, for which the solubility (kinetic) came out at 10.5 µg/mL (≈ 26.9 µM). This solubility kinetic lies about 4.2-fold lower than the previous one.
`CC(C)N1C(=O)CCC1C(=O)NCc1ccco1` (stereo not drawn) came in with a kinetic solubility of 29.2 µg/mL (≈ 117 µM).
As for `Fc1ccc(CN2CCCN(C(=S)Nc3ccc(F)cc3)CC2)cc1`, the solubility (kinetic) was over 54.2 µg/mL.
`CC(Cl)C(=O)c1ccc2c(c1)CCN2C(=O)C1CC1` (stereo not drawn) gave a kinetic solubility of 9.6 µg/mL (≈ 34.6 µM).
`COc1ccc(OC)c(N/C(N)=N/c2nc(C)cc(C)n2)c1` came in with a solubility (kinetic) of 40.5 µg/mL (≈ 134 µM).
In turn, `COc1ccc(NC(=O)c2ccccc2NC(=O)c2ccco2)cc1` gave a solubility (kinetic) of under 0.4 µg/mL.
`CC(C)CC(=O)NC1(C(F)(F)F)NC(=O)N(c2ccccc2)C1=O` (stereo not drawn) registered a solubility (kinetic) of 45.8 µg/mL (≈ 133 µM).
The figure for `Cc1sc2ccccc2[n+]1CC(=O)c1ccccc1.[Br-]` is 42.6 µg/mL; for `COc1cc(C)ccc1Oc1nc(-c2ccccc2O)nc2ccccc12` it is under 0.4 µg/mL.
The value for `O=C(CSc1ccccn1)Nc1ccc2[nH]c(=O)[nH]c2c1` was over 45.1 µg/mL; that for `Cc1ccc(NC(=O)C2CCN(C(=O)c3ccco3)CC2)cc1` was over 46.9 µg/mL; that for `Cc1cccc(NC(=O)C2CC3CCC2C3)c1C` (stereo not drawn) was 10.5 µg/mL (≈ 43.1 µM).
